Publication PMC8164609 (Environmental Science and Pollution Research International, 2021)
Where “and” joins values, the source holds several entries; their conditions need not be identical. Identical values can stand only once. Like-named read-outs stand apart in the source and are kept apart here.

Key:
[1] = test system: MCF-7 cells; experiment: In vitro micronucleus assay for cytokinesis block; assay type: cell-based, human; conditions: 24 h; for Micronuclei per 1000 binucleated cells, Replicates: single replicate values
Protocol: The genotoxicity of EEDCs to MCF-7 cells was assessed by the in vitro micronucleus assay for cytokinesis block. MCF-7 cells were seeded at a density of 5×10^4/well in a 12-well plate in SF medium containing DMEM, 7% charcoal-stripped FBS and 4 mM L-glutamine. These cells were treated with test compounds or the positive control for 24 h. Then, cells were washed twice with PBS, treated with 2 μg/mL cytochalasin B, and incubated for 1.5–2 normal cell cycle lengths (~24 h for MCF-7 cells). Finally, cells were washed with PBS and fixed with 4% paraformaldehyde for 10–15 min (in PBS, pH 6.9). Before staining cells with 5% Giemsa stain for 20 min, plates were washed again with PBS and dried. The frequency of micronuclei per 1000 binucleated cells was counted for each well, and the ratio of micronucleus frequency in treated vs. control cells was defined as fold induction. Cells in mitosis were omitted.

[2] = test system: MCF-7 cells; experiment: LDH cytotoxicity test; conditions: 24 h, up to 10^−4 M
Protocol: Cytotoxicity was assessed by lactate dehydrogenase (LDH) release. For LDH measurement, Pierce LDH Cytotoxicity Assay Kit (Thermo Scientific, Rockford, USA) was used. MCF-7 cells were seeded at 2.8×10^5 in a transparent 96-well plate, and corner cells of the plate were filled with PBS to prevent the edge effect. SF medium containing DMEM without phenol red, 1% charcoal-stripped FBS, and 4 mM L-glutamine were used for this assay. Plates were incubated for 24 h, and then the cells were treated with test compounds at concentrations ranging from 10^−14 to 10^−4 M or vehicle for another 24 h. On day 3, culture supernatant was collected in a separate 96-well plate, and the assay was continued according to the manufacturer’s instructions. Final absorbance was measured with the microplate reader at 490 and 680 nm. […] Vehicle control was 0.1% EtOH or DMSO. All the exposures were in triplicate, and the experiment was carried out twice.

[3] = test system: MCF-7 cells; design: method as in Blanquer-Rosselló et al. [2013]; conditions: 0.001–20 μM, ref Blanquer-Rosselló et al. [2013]; cited from earlier work
[4] = test system: S. cerevisiae BMA64/luc; conditions: values higher than 2 are considered toxic
Protocol: Yeast bioluminescent assay was performed as previously described (Omoruyi and Pohjanvirta [2018]). Two recombinant yeasts, Saccharomyces cerevisiae BMAEREluc/ERα and Saccharomyces cerevisiae BMA64/luc, were kindly provided by Dr. Johanna Rajasärkkä, Department of Food and Environmental Sciences, Faculty of Agriculture and Forestry, University of Helsinki. In the BMAEREluc/ERα, human ERα is expressed. After estrogen-like chemicals bind to ERα, the dimerized receptor binds to a specific DNA sequence called estrogen response element (ERE), in the promotor region of the luc reporter gene, inducing its expression. In BMA64/luc, the luciferase is expressed constitutively, and this strain can be used for the evaluation of cytotoxicity of test compounds.
Both strains were revived from glycerol stock solution on agar and broth forms of synthetic complete medium supplemented with the required amino acids. After the absence of contamination was confirmed by observing single colonies’ morphology on agar plate, approximately 10 μL of cultured yeasts in broth was transferred to 4 mL of synthetic defined (SD) medium supplemented with the required amino acids. The culture was incubated at 30°C on a shaker incubator (200 rpm). After 24-h incubation, the culture was diluted with SD broth to reach the optimal density (OD600) of 0.4 CFU/mL. Subsequently, the culture was incubated in the same incubation condition until the OD600 reached 0.6–0.7 CFU/mL.
Next, 90 μL of cultured yeasts containing 1:20 luciferin solution (0.042 g luciferin dissolved in 9.75 mL of 0.2 M trisodium citrate, and 5.525 mL of 0.2 M citrate, pH 5) was pipetted into every well of a white 96-well flat-bottom plate, and 10 μL of test compounds in a defined concentration range (diluted in 5% EtOH) were added. The plate was incubated at 30°C for approximately 2.5 h, and was then shaken briefly. The luminescence measurement was performed with Luminoskan Ascent microplate luminometer (Thermo Labsystems) using the recommended settings as follows: 1000 ms integration time, single measurement mode, shaking at 60 rpm for 5 s prior to measurement.
Each concentration of test compounds and controls in the assay was tested in triplicate, and the experiment was performed twice.
* The Correction Factor is the luminescence of the strain BMA64/luc with blank solvent divided by the luminescence of the control strain with the sample. Values higher than 2 are considered toxic (Leskinen et al. 2005).
* The Correction Factor is the luminescence of the strain BMA64/luc with blank solvent divided by the luminescence of the control strain with the sample. Values higher than 2 are considered toxic (Leskinen et al. 2005). […] Each experiment was performed in triplicate.

[5] = test system: MCF-7 cells; experiment: MCF-7 cell proliferation assay (MTT reduction); assay type: cell-based, human; conditions: MCF-7 cells, MTT
Protocol: MCF-7 cell line which is sensitive to estrogen (ERα^+) was kindly provided by Dr. Sari Tojkander (Department of Veterinary Biosciences, Faculty of Veterinary Medicine, University of Helsinki). Cells were usually grown in T25 or T75 flasks containing DMEM with or without phenol red and supplemented with 7–10% FBS and 4 mM L-glutamine at 37°C in 5% CO2/95% humidified atmosphere. In order to eliminate the disturbing effect of hormones usually present in FBS, cell culture medium supplemented with commercially available charcoal-stripped FBS and 4 mM L-glutamine (SF medium) was used for experiments.
The effect of EEDCs on the proliferation of MCF-7 cells was assessed as previously described by measuring the capacity of the cells in each well to reduce MTT reagent (Van Meeuwen et al. [2007]). Approximately 5000 cells/200 μL of SF medium containing DMEM without phenol red, 5% charcoal-stripped FBS, and 4 mM L-glutamine were seeded per well in a 96-well cell culture plate. On day 2, cells were treated with the SF medium containing test compounds or vehicle. The final concentration of the solvents DMSO and EtOH was lower than 0.1%. On day 5, the SF medium containing test compounds or vehicle were refreshed. On day 8, cells were washed with PBS twice and then incubated with the SF medium containing 1 mg/mL MTT reagent for 1 h. The ability of MCF-7 cells to reduce MTT was measured at the reference wavelength of 595 nm using a microplate reader (Multiskan Ascent, Thermo Fisher Scientific). All the exposures were in triplicate.
The dose-response curves of test samples were plotted against logarithmic-transformed concentrations.

[6] = test system: MCF-7 cells; design: method as in Lei et al. [2017]; conditions: 10^−4 M, 24-h incubation, LDH leakage; ref Lei et al. [2017]; cited from earlier work

For CC(C)=CCc1c(O)cc(O)c2c1O[C@H](c1ccc(O)cc1)CC2=O [8-PN, 8-prenylnaringenine], the “Micronuclei per 1000 binucleated cells, Average” value ([1]; 10^−7 M) was 22.33 per 1000 binucleated cells, the “Micronuclei per 1000 binucleated cells, Replicates” value ([1]; 10^−7 M) was 24 per 1000 binucleated cells and 20 per 1000 binucleated cells and 23 per 1000 binucleated cells and the “Micronuclei per 1000 binucleated cells, Average” value ([1]; 10^−8 M) was 18.67 per 1000 binucleated cells. The “Micronuclei per 1000 binucleated cells, Replicates” value ([1]; 10^−8 M) was 16 per 1000 binucleated cells and 19 per 1000 binucleated cells and 21 per 1000 binucleated cells, the “maximum level of cytotoxicity (LDH release)” value [2] was “less than 2.5%” and the “mitochondrial function and ROS production” value [3] was “improved mitochondrial function and decreased ROS production”. For the same compound, the “Correction Factor” value ([4]; 5% DMSO, 10^−4 M) was 3.27±0.64, the “Correction Factor” value ([4]; 5% DMSO, 10^−6 M) was 3.31±0.92 and the “Correction Factor” value ([4]; 5% DMSO, 10^−8 M) was 2.62±0.30. The “Correction Factor” value ([4]; 5% DMSO, 10^−10 M) was 2.02±0.15, the “Correction Factor” value ([4]; 5% DMSO, 10^−12 M) was 2.32±0.56 and the “Correction Factor” value ([4]; 5% DMSO, 10^−14 M) was 2.09±0.35. The “Correction Factor” value ([4]; 5% ethanol, 10^−4 M) was 1.05±0.21, the “Correction Factor” value ([4]; 5% ethanol, 10^−6 M) was 0.94±0.14 and the “Correction Factor” value ([4]; 5% ethanol, 10^−8 M) was 0.97±0.04. The “Correction Factor” value ([4]; 5% ethanol, 10^−10 M) was 1.03±0.16, the “Correction Factor” value ([4]; 5% ethanol, 10^−12 M) was 0.92±0.14 and the “Correction Factor” value ([4]; 5% ethanol, 10^−14 M) was 0.98±0.12. For the same compound, the EC50 ([5]; Homo sapiens, MCF7, hormone-depleted medium, read-out: EC50 (proliferative effect)) was 4.98 nM and the “efficacy (maximum induction of cell growth) compared with 17β-estradiol” value [5] was “about half”.
In the case of CC(C)(c1ccc(O)cc1)c1ccc(O)cc1 [BPA, bisphenol A], the “increase of MCF-7-cell mortality” value [6] is given as “more than 80%”.
